Molecular target: T1, CCDC6-RET (Homo sapiens, UniProt P07949+Q16204+Q96SW2)
T1 construct: CCDC6 (natural N-terminal fusion partner, UniProt Q16204); endogenous in cells; host or cells: TPC-1 (parental, papillary thyroid carcinoma)
Test: Cellular RET degradation, AlphaLISA, TPC-1 cell line
Assay type: cell-based
Details: for Dmax: TPC1, human, 24 h, read-out: Cell Density TPC-1/CCDC6-RET Ymax %; for DC50: read-out: Cell Density TPC-1/CCDC6-RET DC50, half-maximal degradation concentration, TPC-1 (CCDC6-RET), 24 hrs
Outline: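 Luminescent AlphaLISA read of RET abundance in lysates after 24 h compound exposure (37 °C, 2% FBS DMEM) of CCDC6-RET-bearing TPC-1 cells. % degradation relative to DMSO (high) and media (low) controls, fitted to 4-parameter logistic curve for DC50 and Ymax.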

T1 sequence (Q16204+P07949 fused): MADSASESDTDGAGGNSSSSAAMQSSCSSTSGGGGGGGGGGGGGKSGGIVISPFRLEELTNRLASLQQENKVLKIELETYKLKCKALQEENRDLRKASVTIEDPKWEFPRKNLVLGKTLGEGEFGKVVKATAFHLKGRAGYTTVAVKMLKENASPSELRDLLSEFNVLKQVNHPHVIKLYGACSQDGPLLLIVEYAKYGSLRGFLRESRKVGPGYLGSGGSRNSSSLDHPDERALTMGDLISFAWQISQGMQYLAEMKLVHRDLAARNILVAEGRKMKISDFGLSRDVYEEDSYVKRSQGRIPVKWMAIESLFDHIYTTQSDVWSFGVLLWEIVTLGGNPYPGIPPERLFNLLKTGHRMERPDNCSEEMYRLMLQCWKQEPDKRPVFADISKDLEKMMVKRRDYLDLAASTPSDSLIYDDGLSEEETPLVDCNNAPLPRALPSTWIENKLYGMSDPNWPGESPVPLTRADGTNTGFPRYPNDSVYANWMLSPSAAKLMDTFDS
T1 sequence (Q96SW2 whole entry, the tested form may be a part): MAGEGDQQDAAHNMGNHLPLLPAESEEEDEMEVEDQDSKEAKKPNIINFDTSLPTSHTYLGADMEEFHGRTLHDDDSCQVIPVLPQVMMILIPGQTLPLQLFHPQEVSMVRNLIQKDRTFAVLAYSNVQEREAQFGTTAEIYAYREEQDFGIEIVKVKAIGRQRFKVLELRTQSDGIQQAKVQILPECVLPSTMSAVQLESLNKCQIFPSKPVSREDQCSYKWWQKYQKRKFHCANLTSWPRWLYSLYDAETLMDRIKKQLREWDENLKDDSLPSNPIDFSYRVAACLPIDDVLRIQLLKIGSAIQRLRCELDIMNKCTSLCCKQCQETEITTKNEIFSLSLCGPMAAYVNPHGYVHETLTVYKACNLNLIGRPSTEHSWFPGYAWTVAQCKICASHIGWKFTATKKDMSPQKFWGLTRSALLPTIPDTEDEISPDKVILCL
T1 sequence (Q16531 whole entry partner, the tested form may be a part): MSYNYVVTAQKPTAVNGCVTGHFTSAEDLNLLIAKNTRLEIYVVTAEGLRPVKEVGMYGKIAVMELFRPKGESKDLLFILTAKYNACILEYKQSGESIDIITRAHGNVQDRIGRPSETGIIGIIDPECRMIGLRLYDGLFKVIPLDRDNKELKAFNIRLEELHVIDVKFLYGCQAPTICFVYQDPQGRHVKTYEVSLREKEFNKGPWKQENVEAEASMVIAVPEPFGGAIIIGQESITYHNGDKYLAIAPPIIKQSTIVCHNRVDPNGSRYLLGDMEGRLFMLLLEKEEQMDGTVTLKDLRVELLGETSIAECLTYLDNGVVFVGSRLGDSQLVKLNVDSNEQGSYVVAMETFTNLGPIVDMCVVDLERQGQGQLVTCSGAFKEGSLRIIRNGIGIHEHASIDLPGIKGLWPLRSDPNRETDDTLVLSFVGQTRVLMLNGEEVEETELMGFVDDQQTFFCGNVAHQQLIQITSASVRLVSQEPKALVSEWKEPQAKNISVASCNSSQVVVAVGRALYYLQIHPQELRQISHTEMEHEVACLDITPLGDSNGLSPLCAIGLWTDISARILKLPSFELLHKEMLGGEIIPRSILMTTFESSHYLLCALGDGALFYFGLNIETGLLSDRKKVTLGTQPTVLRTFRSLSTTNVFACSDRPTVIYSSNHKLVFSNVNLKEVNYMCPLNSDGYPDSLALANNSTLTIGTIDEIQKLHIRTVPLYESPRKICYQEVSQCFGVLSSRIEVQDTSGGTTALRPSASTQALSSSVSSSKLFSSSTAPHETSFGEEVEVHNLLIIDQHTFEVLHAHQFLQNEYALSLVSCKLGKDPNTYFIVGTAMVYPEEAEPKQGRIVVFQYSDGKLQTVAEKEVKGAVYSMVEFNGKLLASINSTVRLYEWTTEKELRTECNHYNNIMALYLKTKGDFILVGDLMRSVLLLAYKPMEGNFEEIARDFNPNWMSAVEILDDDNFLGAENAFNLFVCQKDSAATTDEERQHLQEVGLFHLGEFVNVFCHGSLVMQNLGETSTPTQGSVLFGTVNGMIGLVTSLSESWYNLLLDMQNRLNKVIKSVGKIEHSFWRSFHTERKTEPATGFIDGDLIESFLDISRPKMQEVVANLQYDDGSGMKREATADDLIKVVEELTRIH

With `CCOc1cc(-c2ccc(N3CCC(CN4CCN(C(=O)C5CC6(C5)CC(C(=O)N5CCN(c7ccc8c(c7)C(=O)N(C7CCC(=O)NC7=O)C8)CC5)C6)CC4)(NC(=O)c4cc(F)ccc4F)CC3)nc2)c2c(C#N)cnn2c1` (stereo not drawn) [Example 86, N-[1-(5-{3-cyano-6-ethoxypyrazolo[1,5-a]pyridin-4-yl}pyridin-2-yl)-4-{[4-(6-{4-[2-(2,6-dioxopiperidin-3-yl)-3-oxo-2,3-dihydro-1H-isoindol-5-yl]piperazine-1-carbonyl}spiro[3.3]heptane-2-carbonyl)piperazin-1-yl]methyl}piperidin-4-yl]-2,5-difluorobenzamide] the Dmax was > 90% and the DC50 was < 2 nM.
With `CCOc1cc(-c2ccc(N3CCC(CN4CCC5(CC4)CCN(C(=O)CCN4CCN(c6ccc7c(c6)CN(C6CCC(=O)NC6=O)C7=O)CC4)CC5)(NC(=O)c4cc(F)ccc4F)CC3)nc2)c2c(C#N)cnn2c1` (stereo not drawn) [Example 87, N-[1-(5-{3-cyano-6-ethoxypyrazolo[1,5-a]pyridin-4-yl}pyridin-2-yl)-4-{[9-(3-{4-[2-(2,6-dioxopiperidin-3-yl)-1-oxo-2,3-dihydro-1H-isoindol-5-yl]piperazin-1-yl}propanoyl)-3,9-diazaspiro[5.5]undecan-3-yl]methyl}piperidin-4-yl]-2,5-difluorobenzamide] the Dmax was > 90% and the DC50 was 2 to 10 nM.
With `CCOc1cc(-c2ccc(N3CCC(CN4CCC5(CC4)CCN(C(=O)CCN4CCC(c6ccc7c(c6)CN(C6CCC(=O)NC6=O)C7=O)CC4)CC5)(NC(=O)c4cc(F)ccc4F)CC3)nc2)c2c(C#N)cnn2c1` (stereo not drawn) [Example 88, N-[1-(5-{3-cyano-6-ethoxypyrazolo[1,5-a]pyridin-4-yl}pyridin-2-yl)-4-{[9-(3-{4-[2-(2,6-dioxopiperidin-3-yl)-1-oxo-2,3-dihydro-1H-isoindol-5-yl]piperidin-1-yl}propanoyl)-3,9-diazaspiro[5.5]undecan-3-yl]methyl}piperidin-4-yl]-2,5-difluorobenzamide] the Dmax was > 90% and the DC50 was 10 to 100 nM.
For `CCOc1cc(-c2ccc(N3CCC(CN4CC5(C4)CN(C(=O)CCN4CCC(c6ccc7c(c6)CN(C6CCC(=O)NC6=O)C7=O)CC4)C5)(NC(=O)c4cc(F)ccc4F)CC3)nc2)c2c(C#N)cnn2c1` (stereo not drawn) [Example 89, N-[1-(5-{3-cyano-6-ethoxypyrazolo[1,5-a]pyridin-4-yl}pyridin-2-yl)-4-{[6-(3-{4-[2-(2,6-dioxopiperidin-3-yl)-1-oxo-2,3-dihydro-1H-isoindol-5-yl]piperidin-1-yl}propanoyl)-2,6-diazaspiro[3.3]heptan-2-yl]methyl}piperidin-4-yl]-2,5-difluorobenzamide], the Dmax was > 90% and the DC50 was 10 to 100 nM.
In the case of `CCOc1cc(-c2ccc(N3CCC(CN4CCN(CCC(=O)N5CCC6(CC5)CCN(c5ccc7c(c5)CN(C5CCC(=O)NC5=O)C7=O)CC6)CC4)(NC(=O)c4cc(F)ccc4F)CC3)nc2)c2c(C#N)cnn2c1` (stereo not drawn) [Example 90, N-[1-(5-{3-cyano-6-ethoxypyrazolo[1,5-a]pyridin-4-yl}pyridin-2-yl)-4-{[4-(3-{9-[2-(2,6-dioxopiperidin-3-yl)-1-oxo-2,3-dihydro-1H-isoindol-5-yl]-3,9-diazaspiro[5.5]undecan-3-yl}-3-oxopropyl)piperazin-1-yl]methyl}piperidin-4-yl]-2,5-difluorobenzamide], the Dmax was > 90% and the DC50 was 10 to 100 nM.
For `CCOc1cc(-c2ccc(N3CCC(CN4CCN(C(=O)CCN5CCC6(CC5)CCN(c5ccc7c(c5)CN(C5CCC(=O)NC5=O)C7=O)CC6)CC4)(NC(=O)c4cc(F)ccc4F)CC3)nc2)c2c(C#N)cnn2c1` (stereo not drawn) [Example 91, N-[1-(5-{3-cyano-6-ethoxypyrazolo[1,5-a]pyridin-4-yl}pyridin-2-yl)-4-{[4-(3-{9-[2-(2,6-dioxopiperidin-3-yl)-1-oxo-2,3-dihydro-1H-isoindol-5-yl]-3,9-diazaspiro[5.5]undecan-3-yl}propanoyl)piperazin-1-yl]methyl}piperidin-4-yl]-2,5-difluorobenzamide], the Dmax was 60 to 90% and the DC50 was < 2 nM.
`CCOc1cc(-c2ccc(N3CCC(CN4CCN(C(=O)C5CC6(C5)CC(N5CCC(c7ccc8c(c7)CN(C7CCC(=O)NC7=O)C8=O)CC5)C6)CC4)(NC(=O)c4cc(F)ccc4F)CC3)nc2)c2c(C#N)cnn2c1` (stereo not drawn) [Example 92, N-[1-(5-{3-cyano-6-ethoxypyrazolo[1,5-a]pyridin-4-yl}pyridin-2-yl)-4-{[4-(6-{4-[2-(2,6-dioxopiperidin-3-yl)-1-oxo-2,3-dihydro-1H-isoindol-5-yl]piperidin-1-yl}spiro[3.3]heptane-2-carbonyl)piperazin-1-yl]methyl}piperidin-4-yl]-2,5-difluorobenzamide] was tested, and the Dmax was > 90% and the DC50 was 2 to 10 nM.
`CCOc1cc(-c2ccc(N3CCC(CN4CCN(C(=O)C5CC6(CC(Nc7ccc8c(N9CCC(=O)NC9=O)nn(C)c8c7)C6)C5)CC4)(NC(=O)c4cc(F)ccc4F)CC3)nc2)c2c(C#N)cnn2c1` (stereo not drawn) [Example 93, N-[1-(5-{3-cyano-6-ethoxypyrazolo[1,5-a]pyridin-4-yl}pyridin-2-yl)-4-{[4-(6-{[3-(2,4-dioxo-1,3-diazinan-1-yl)-1-methyl-1H-indazol-6-yl]amino}spiro[3.3]heptane-2-carbonyl)piperazin-1-yl]methyl}piperidin-4-yl]-2,5-difluorobenzamide] was tested, and the Dmax was > 90% and the DC50 was 2 to 10 nM.
For `CCOc1cc(-c2ccc(N3CCC(CN4CCN(C5CC6(CC(C(=O)N7CCN(c8ccc9c(c8)CN(C8CCC(=O)NC8=O)C9=O)CC7)C6)C5)CC4)(NC(=O)c4cc(F)ccc4F)CC3)nc2)c2c(C#N)cnn2c1` (stereo not drawn) [Example 94, N-[1-(5-{3-cyano-6-ethoxypyrazolo[1,5-a]pyridin-4-yl}pyridin-2-yl)-4-{[4-(6-{4-[2-(2,6-dioxopiperidin-3-yl)-1-oxo-2,3-dihydro-1H-isoindol-5-yl]piperazine-1-carbonyl}spiro[3.3]heptan-2-yl)piperazin-1-yl]methyl}piperidin-4-yl]-2,5-difluorobenzamide], the Dmax was 60 to 90% and the DC50 was 2 to 10 nM.
In the case of `CCOc1cc(-c2ccc(N3CCC(CN4CCN(C5CC6(CC(C(=O)N7CCC(c8ccc9c(c8)CN(C8CCC(=O)NC8=O)C9=O)CC7)C6)C5)CC4)(NC(=O)c4cc(F)ccc4F)CC3)nc2)c2c(C#N)cnn2c1` (stereo not drawn) [Example 95, N-[1-(5-{3-cyano-6-ethoxypyrazolo[1,5-a]pyridin-4-yl}pyridin-2-yl)-4-{[4-(6-{4-[2-(2,6-dioxopiperidin-3-yl)-1-oxo-2,3-dihydro-1H-isoindol-5-yl]piperidine-1-carbonyl}spiro[3.3]heptan-2-yl)piperazin-1-yl]methyl}piperidin-4-yl]-2,5-difluorobenzamide], the Dmax was 60 to 90% and the DC50 was 2 to 10 nM.
Molecule `CCOc1cc(-c2ccc(N3CCC(CN4CCC5(CC4)CCN(C(=O)c4ccc6c(c4)C(=O)N(C4CCC(=O)NC4=O)C6)CC5)(NC(=O)c4cc(F)ccc4F)CC3)nc2)c2c(C#N)cnn2c1` (stereo not drawn) [Example 96, N-[1-(5-{3-cyano-6-ethoxypyrazolo[1,5-a]pyridin-4-yl}pyridin-2-yl)-4-({9-[2-(2,6-dioxopiperidin-3-yl)-3-oxo-2,3-dihydro-1H-isoindole-5-carbonyl]-3,9-diazaspiro[5.5]undecan-3-yl}methyl)piperidin-4-yl]-2,5-difluorobenzamide] has a Dmax of 60 to 90% and a DC50 of 10 to 100 nM.
Work on `CCOc1cc(-c2ccc(N3CCC(CN4CC5(C4)CN(C(=O)COc4ccc6c(c4)CN(C4CCC(=O)NC4=O)C6=O)C5)(NC(=O)c4cc(F)ccc4F)CC3)nc2)c2c(C#N)cnn2c1` (stereo not drawn) [Example 97, N-[1-(5-{3-cyano-6-ethoxypyrazolo[1,5-a]pyridin-4-yl}pyridin-2-yl)-4-{[6-(2-{[2-(2,6-dioxopiperidin-3-yl)-1-oxo-2,3-dihydro-1H-isoindol-5-yl]oxy}acetyl)-2,6-diazaspiro[3.3]heptan-2-yl]methyl}piperidin-4-yl]-2,5-difluorobenzamide] yielded a Dmax of 60 to 90% and a DC50 of 2 to 10 nM.
`CCOc1cc(-c2ccc(N3CCC(CN4CCC5(CC4)CCN(C(=O)Cc4ccc6c(c4)CN(C4CCC(=O)NC4=O)C6=O)CC5)(NC(=O)c4cc(F)ccc4F)CC3)nc2)c2c(C#N)cnn2c1` (stereo not drawn) [Example 98, N-[1-(5-{3-cyano-6-ethoxypyrazolo[1,5-a]pyridin-4-yl}pyridin-2-yl)-4-[(9-{2-[2-(2,6-dioxopiperidin-3-yl)-1-oxo-2,3-dihydro-1H-isoindol-5-yl]acetyl}-3,9-diazaspiro[5.5]undecan-3-yl)methyl]piperidin-4-yl]-2,5-difluorobenzamide] was tested, and the Dmax was > 90% and the DC50 was 2 to 10 nM.
For `CCOc1cc(-c2ccc(N3CCC(CN4CCC5(CC4)CCN(C(=O)COc4ccc6c(c4)CN(C4CCC(=O)NC4=O)C6=O)CC5)(NC(=O)c4cc(F)ccc4F)CC3)nc2)c2c(C#N)cnn2c1` (stereo not drawn) [Example 99, N-[1-(5-{3-cyano-6-ethoxypyrazolo[1,5-a]pyridin-4-yl}pyridin-2-yl)-4-{[9-(2-{[2-(2,6-dioxopiperidin-3-yl)-1-oxo-2,3-dihydro-1H-isoindol-5-yl]oxy}acetyl)-3,9-diazaspiro[5.5]undecan-3-yl]methyl}piperidin-4-yl]-2,5-difluorobenzamide], the Dmax was 60 to 90% and the DC50 was < 2 nM.
In the case of `CCOc1cc(-c2ccc(N3CCC(CN4CCN(CCOCCC(=O)N5CCN(c6ccc7c(c6)CN(C6CCC(=O)NC6=O)C7=O)CC5)CC4)(NC(=O)c4cc(F)ccc4F)CC3)nc2)c2c(C#N)cnn2c1` (stereo not drawn) [Example 100, N-[1-(5-{3-cyano-6-ethoxypyrazolo[1,5-a]pyridin-4-yl}pyridin-2-yl)-4-({4-[2-(3-{4-[2-(2,6-dioxopiperidin-3-yl)-1-oxo-2,3-dihydro-1H-isoindol-5-yl]piperazin-1-yl}-3-oxopropoxy)ethyl]piperazin-1-yl}methyl)piperidin-4-yl]-2,5-difluorobenzamide], the Dmax was > 90% and the DC50 was 2 to 10 nM.
